Laboratory results published in US9422293B2 (priority 2006, dated 2016).
Counter-ions that a name gives are not always drawn.

Molecular target: rat TRPV1 (Rattus norvegicus (Rat), UniProt O35433)
Conditions: read-out: Rat IC50

Sequence of rat TRPV1 (O35433 whole entry): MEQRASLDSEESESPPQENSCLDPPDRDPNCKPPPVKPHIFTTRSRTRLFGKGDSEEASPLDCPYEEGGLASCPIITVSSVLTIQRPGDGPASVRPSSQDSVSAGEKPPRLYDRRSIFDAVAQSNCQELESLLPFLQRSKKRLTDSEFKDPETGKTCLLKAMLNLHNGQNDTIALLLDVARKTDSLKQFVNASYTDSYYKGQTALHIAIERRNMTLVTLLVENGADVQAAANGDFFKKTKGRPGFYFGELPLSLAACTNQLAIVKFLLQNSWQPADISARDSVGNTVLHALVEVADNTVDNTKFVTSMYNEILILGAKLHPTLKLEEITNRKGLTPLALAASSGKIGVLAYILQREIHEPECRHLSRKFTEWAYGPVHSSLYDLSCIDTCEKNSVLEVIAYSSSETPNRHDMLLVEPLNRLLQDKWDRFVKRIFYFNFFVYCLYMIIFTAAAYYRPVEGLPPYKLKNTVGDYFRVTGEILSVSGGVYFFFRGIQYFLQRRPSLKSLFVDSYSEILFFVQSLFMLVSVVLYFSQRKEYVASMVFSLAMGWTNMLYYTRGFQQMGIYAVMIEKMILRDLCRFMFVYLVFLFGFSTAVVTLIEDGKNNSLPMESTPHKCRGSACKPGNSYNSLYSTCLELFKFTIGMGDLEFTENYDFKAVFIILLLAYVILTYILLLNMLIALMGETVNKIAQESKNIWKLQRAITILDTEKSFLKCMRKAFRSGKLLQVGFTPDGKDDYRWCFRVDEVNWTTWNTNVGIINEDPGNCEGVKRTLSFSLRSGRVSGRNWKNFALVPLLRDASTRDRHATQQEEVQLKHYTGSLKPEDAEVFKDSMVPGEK

In order of falling IC50:
1. CC(C)c1nc2c(c(NCc3c(Cl)cccc3Cl)n1)CCN(c1ncccc1C(F)(F)F)CC2 [Example 120, N-[(2,6-Dichlorophenyl)methyl]-2-(1-methylethyl)-7-[3-(trifluoromethyl)pyridin-2-yl]-6,7,8,9-tetrahydro-5H-pyrimido[4,5-d]azepin-4-amine]  12000 nM
2. Cc1cc(C(F)(F)F)ccc1Nc1nc(S(C)(=O)=O)nc2c1CCN(c1ncccc1C(F)(F)F)CC2 [Example 209, 2-(Methylsulfonyl)-N-[2-methyl-4-(trifluoromethyl)phenyl]-7-[3-(trifluoromethyl)pyridin-2-yl]-6,7,8,9-tetrahydro-5H-pyrimido[4,5-d]azepin-4-amine]  3450 nM
3. CC(C)c1nc2c(c(Nc3ccc(C(F)(F)F)cc3F)n1)CCN(c1ncccc1C(F)(F)F)CC2 [Example 155, N-[2-Fluoro-4-(trifluoromethyl)phenyl]-2-(1-methylethyl)-7-[3-(trifluoromethyl)pyridin-2-yl]-6,7,8,9-tetrahydro-5H-pyrimido[4,5-d]azepin-4-amine]  3280 nM
4. Nc1nc2c(c(Nc3ccc(C(F)(F)F)cc3)n1)CCN(c1ncccc1C(F)(F)F)CC2 [Example 51, N^4-(4-Trifluoromethyl-phenyl)-7-(3-trifluoromethyl-pyridin-2-yl)-6,7,8,9-tetrahydro-5H-pyrimido[4,5-d]azepine-2,4-diamine]  1200 nM
5. CCCCOc1nc2c(c(Nc3ccc(C(F)(F)F)nc3)n1)CCN(c1ncccc1C(F)(F)F)CC2 [Example 327, 2-(Butyloxy)-7-[3-(trifluoromethyl)pyridin-2-yl]-N-[6-(trifluoromethyl)pyridin-3-yl]-6,7,8,9-tetrahydro-5H-pyrimido[4,5-d]azepin-4-amine]  890 nM
6. CC(C)c1nc2c(c(Nc3ccc(Oc4ccccc4)cc3)n1)CCN(c1ncccc1C(F)(F)F)CC2 [Example 25, [2-Isopropyl-7-(3-trifluoromethyl-pyridin-2-yl)-6,7,8,9-tetrahydro-5H-pyrimido[4,5-d]azepin-4-yl]-(4-phenoxy-phenyl)-amine]  770 nM
7. Cc1cc(C(F)(F)F)ccc1Nc1nc(N2CCOC(CO)C2)nc2c1CCN(c1ncccc1C(F)(F)F)CC2 (centres unmarked) [Example 273, [4-(4-{[2-Methyl-4-(trifluoromethyl)phenyl]amino}-7-[3-(trifluoromethyl)pyridin-2-yl]-6,7,8,9-tetrahydro-5H-pyrimido[4,5-d]azepin-2-yl)morpholin-2-yl]methanol]  680 nM
8. CC(C)c1nc2c(c(NCCc3c(Cl)cccc3Cl)n1)CCN(c1ncccc1C(F)(F)F)CC2 [Example 125, N-[2-(2,6-Dichlorophenyl)ethyl]-2-(1-methylethyl)-7-[3-(trifluoromethyl)pyridin-2-yl]-6,7,8,9-tetrahydro-5H-pyrimido[4,5-d]azepin-4-amine]  610 nM
9. FC(F)(F)c1ccc(Nc2nc(C3CC3)nc3c2CCN(c2ncccc2C(F)(F)F)CC3)nc1 [Example 19, [2-Cyclopropyl-7-(3-trifluoromethyl-pyridin-2-yl)-6,7,8,9-tetrahydro-5H-pyrimido[4,5-d]azepin-4-yl]-(5-trifluoromethyl-pyridin-2-yl)-amine]  510 nM
10. FC(F)(F)c1ccc(Nc2nc(-c3ccncc3)nc3c2CCN(c2ncccc2C(F)(F)F)CC3)cc1 [Example 167, 2-Pyridin-4-yl-N-[4-(trifluoromethyl)phenyl]-7-[3-(trifluoromethyl)pyridin-2-yl]-6,7,8,9-tetrahydro-5H-pyrimido[4,5-d]azepin-4-amine trifluoroacetic acid salt]  370 nM
11. COC(=O)c1ccc(Nc2nc(C(C)C)nc3c2CCN(c2ncccc2C(F)(F)F)CC3)cc1 [Example 103, 4-[2-Isopropyl-7-(3-trifluoromethyl-pyridin-2-yl)-6,7,8,9-tetrahydro-5H-pyrimido[4,5-d]azepin-4-ylamino]-benzoic acid methyl ester]  340 nM
12. CC(C)c1nc2c(c(Nc3ccc(SC(F)(F)F)cc3)n1)CCN(c1ncccc1C(F)(F)F)CC2 [Example 104, [2-Isopropyl-7-(3-trifluoromethyl-pyridin-2-yl)-6,7,8,9-tetrahydro-5H-pyrimido[4,5-d]azepin-4-yl]-(4-trifluoromethylsulfanyl-phenyl)-amine]  320 nM
13. O=S(=O)(c1ccc(Nc2nc(OC3CCCC3)nc3c2CCN(c2ncccc2C(F)(F)F)CC3)cc1)C(F)(F)F [Example 319, 2-(Cyclopentyloxy)-7-[3-(trifluoromethyl)pyridin-2-yl]-N-{4-[(trifluoromethyl)sulfonyl]phenyl}-6,7,8,9-tetrahydro-5H-pyrimido[4,5-d]azepin-4-amine]  240 nM
14. FC(F)(F)c1ccc(Nc2nc(C3CC3)nc3c2CCN(c2ncccc2C(F)(F)F)CC3)cc1 [Example 5, [2-Cyclopropyl-7-(3-trifluoromethyl-pyridin-2-yl)-6,7,8,9-tetrahydro-5H-pyrimido[4,5-d]azepin-4-yl]-(4-trifluoromethyl-phenyl)-amine]  150 nM
15. CCS(=O)(=O)c1cccnc1N1CCc2nc(C(C)C)nc(Nc3ccc(C(C)(C)C)cc3)c2CC1 [Example 296, N-[4-(1,1-Dimethylethyl)phenyl]-7-[3-(ethylsulfonyl)pyridin-2-yl]-2-(1-methylethyl)-6,7,8,9-tetrahydro-5H-pyrimido[4,5-d]azepin-4-amine]  120 nM
16. FC1(F)CCCN(c2nc3c(c(Nc4ccc(C(F)(F)F)cc4)n2)CCN(c2ncccc2C(F)(F)F)CC3)C1 [Example 238, 2-(3,3-Difluoropiperidin-1-yl)-N-[4-(trifluoromethyl)phenyl]-7-[3-(trifluoromethyl)pyridin-2-yl]-6,7,8,9-tetrahydro-5H-pyrimido[4,5-d]azepin-4-amine trifluoroacetic acid salt]  40 nM
17. CC(C)(C#N)c1ccc(Nc2nc(N3CCCCC3)nc3c2CCN(c2ncccc2C(F)(F)F)CC3)cc1 [Example 384, 2-Methyl-2-{4-[2-piperidin-1-yl-7-(3-trifluoromethyl-pyridin-2-yl)-6,7,8,9-tetrahydro-5H-pyrimido[4,5-d]azepin-4-ylamino]-phenyl}-propionitrile]  40 nM
18. FC(F)(F)c1ccc(Nc2nc(N3CCCCCC3)nc3c2CCN(c2ncccc2C(F)(F)F)CC3)cc1 [Example 222, 2-Azepan-1-yl-N-[4-(trifluoromethyl)phenyl]-7-[3-(trifluoromethyl)pyridin-2-yl]-6,7,8,9-tetrahydro-5H-pyrimido[4,5-d]azepin-4-amine]  20 nM
19. COC[C@@H]1CCCN1c1nc2c(c(Nc3ccc(C(F)(F)F)cc3)n1)CCN(c1ncccc1C(F)(F)F)CC2 [Example 215, 2-{(2S)-2-[(Methyloxy)methyl]pyrrolidin-1-yl}-N-[4-(trifluoromethyl)phenyl]-7-[3-(trifluoromethyl)pyridin-2-yl]-6,7,8,9-tetrahydro-5H-pyrimido[4,5-d]azepin-4-amine trifluoroacetic acid salt]  10 nM

Same assay, conditions: read-out: Rat IC50; hydrochloride salt

For `CC(C)(C)c1ccc(Nc2ncnc3c2CCN(c2ncccc2C(F)(F)F)CC3)cc1` [Example 1A, (4-tert-Butyl-phenyl)-[7-(3-trifluoromethyl-pyridin-2-yl)-6,7,8,9-tetrahydro-5H-pyrimido[4,5-d]azepin-4-yl]-amine hydrochloride salt], the IC50 was 49 nM.
